5 molecules from ChEMBL document CHEMBL3044865, “Herbicidal Activity and Characteristics of Pyraflufen-ethyl for Controlling Broad-leaved Weeds in Cereals” (J Pestic Sci, 2002) can be followed below.

The source made the active and inactive calls. The calls are words filed in the database; no cut-off is given here.

Assay [1] concerns the target T1, Protoporphyrinogen oxidase 2 (Spinacia oleracea) (UniProt Q94IG7).
T1 sequence (whole entry): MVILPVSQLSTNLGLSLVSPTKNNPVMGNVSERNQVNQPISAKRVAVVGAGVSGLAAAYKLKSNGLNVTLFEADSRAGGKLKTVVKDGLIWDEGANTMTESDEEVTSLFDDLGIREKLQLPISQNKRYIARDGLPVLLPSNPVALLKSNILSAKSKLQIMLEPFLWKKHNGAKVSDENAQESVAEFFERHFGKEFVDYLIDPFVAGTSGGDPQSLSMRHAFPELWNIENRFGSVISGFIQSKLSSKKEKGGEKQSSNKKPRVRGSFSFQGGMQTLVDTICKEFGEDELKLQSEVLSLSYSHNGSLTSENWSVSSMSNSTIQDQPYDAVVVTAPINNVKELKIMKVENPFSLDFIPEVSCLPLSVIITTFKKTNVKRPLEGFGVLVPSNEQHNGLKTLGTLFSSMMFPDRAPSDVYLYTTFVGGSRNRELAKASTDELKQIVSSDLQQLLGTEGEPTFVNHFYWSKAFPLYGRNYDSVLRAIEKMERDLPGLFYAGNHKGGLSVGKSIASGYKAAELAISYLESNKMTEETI
The assay is described as follows: Inhibition of Stellaria media protoporphyrinogen oxidase by post-emergence herbicidal activity assay.

Assay [2] concerns the target T2, Protoporphyrinogen IX oxidase (Cichorium intybus) (UniProt Q9SPL6).
T2 sequence (whole entry): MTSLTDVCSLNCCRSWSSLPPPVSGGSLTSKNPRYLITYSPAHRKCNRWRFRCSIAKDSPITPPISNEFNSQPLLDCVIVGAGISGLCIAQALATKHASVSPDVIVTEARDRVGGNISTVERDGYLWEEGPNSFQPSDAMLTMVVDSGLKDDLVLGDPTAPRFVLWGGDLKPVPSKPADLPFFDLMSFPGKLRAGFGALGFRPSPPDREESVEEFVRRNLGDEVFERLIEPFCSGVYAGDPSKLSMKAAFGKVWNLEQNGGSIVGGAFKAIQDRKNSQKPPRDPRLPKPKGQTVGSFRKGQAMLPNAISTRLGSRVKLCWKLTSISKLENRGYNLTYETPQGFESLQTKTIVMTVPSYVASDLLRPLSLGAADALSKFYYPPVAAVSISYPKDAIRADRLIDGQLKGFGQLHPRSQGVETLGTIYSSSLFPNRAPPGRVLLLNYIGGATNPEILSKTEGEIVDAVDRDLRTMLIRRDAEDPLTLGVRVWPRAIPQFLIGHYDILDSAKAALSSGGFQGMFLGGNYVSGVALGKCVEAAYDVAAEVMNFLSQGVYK
The assay is described as follows: Inhibition of Tripleurospermum maritimum subsp. inodorum protoporphyrinogen oxidase by post-emergence herbicidal activity assay.

Assay [3] addresses T1, Protoporphyrinogen oxidase 2 (Spinacia oleracea). The assay is described as follows: Inhibition of Stellaria media protoporphyinogen oxidase assessed as herbicidal activity at 10 g/ha measured after 21 days after treatment under greenhouse by time-course analysis. Set-up: scale not given: the % may be the effect or the level left.
In assay [4] the target is T3, Protoporphyrinogen oxidase, chloroplastic (Nicotiana tabacum) (UniProt O24163).
T3 sequence (whole entry): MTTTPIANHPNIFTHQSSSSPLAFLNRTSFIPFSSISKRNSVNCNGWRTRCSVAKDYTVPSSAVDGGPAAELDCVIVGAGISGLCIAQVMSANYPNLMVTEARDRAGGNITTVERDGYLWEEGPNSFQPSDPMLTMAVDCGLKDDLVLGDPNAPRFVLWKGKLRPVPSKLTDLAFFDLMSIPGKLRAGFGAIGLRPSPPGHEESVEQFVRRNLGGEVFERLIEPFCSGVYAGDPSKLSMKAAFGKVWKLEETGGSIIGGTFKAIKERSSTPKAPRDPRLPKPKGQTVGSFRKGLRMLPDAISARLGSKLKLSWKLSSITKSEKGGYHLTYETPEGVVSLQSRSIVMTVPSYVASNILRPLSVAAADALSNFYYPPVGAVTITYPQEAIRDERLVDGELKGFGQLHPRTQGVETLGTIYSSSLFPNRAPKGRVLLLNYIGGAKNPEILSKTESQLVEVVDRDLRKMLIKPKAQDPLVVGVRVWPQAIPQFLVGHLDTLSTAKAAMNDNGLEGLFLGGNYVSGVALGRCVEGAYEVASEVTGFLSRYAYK
The assay is described as follows: Inhibition of Galium aparine protoporphyrinogen oxidase by post-emergence herbicidal activity assay.

Assay [5] has as its target T4, Protoporphyrinogen oxidase (Medicago truncatula) (UniProt G7L3C0).
T4 sequence (whole entry): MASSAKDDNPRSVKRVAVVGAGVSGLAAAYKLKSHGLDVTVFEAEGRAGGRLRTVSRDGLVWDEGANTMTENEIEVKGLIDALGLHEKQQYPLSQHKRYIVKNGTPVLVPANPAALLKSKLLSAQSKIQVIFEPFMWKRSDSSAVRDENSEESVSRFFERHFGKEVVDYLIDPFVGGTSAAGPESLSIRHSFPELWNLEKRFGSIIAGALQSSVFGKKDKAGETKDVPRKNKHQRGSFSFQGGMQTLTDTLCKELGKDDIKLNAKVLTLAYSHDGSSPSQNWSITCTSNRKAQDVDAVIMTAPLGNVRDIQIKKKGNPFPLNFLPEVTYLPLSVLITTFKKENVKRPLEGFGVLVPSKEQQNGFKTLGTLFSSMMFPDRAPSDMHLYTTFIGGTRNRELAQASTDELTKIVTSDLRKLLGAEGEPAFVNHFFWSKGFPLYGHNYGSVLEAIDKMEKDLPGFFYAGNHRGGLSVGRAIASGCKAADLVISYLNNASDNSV
The assay is described as follows: Inhibition of Viola arvensis protoporphyrinogen oxidase by post-emergence herbicidal activity assay.

The target in assay [6] is T3, Protoporphyrinogen oxidase, chloroplastic (Nicotiana tabacum). The assay is described as follows: Inhibition of Veronica hederaefolia protoporphyrinogen oxidase by post-emergence herbicidal activity assay. Conditions: Veronica hederifolia.
Assay [7] deals with T1, Protoporphyrinogen oxidase 2 (Spinacia oleracea). The assay is described as follows: Inhibition of Stellaria media protoporphyinogen oxidase assessed as herbicidal activity at 100 g/ha measured after 21 days after treatment under greenhouse by time-course analysis. Set-up: scale not given: the % may be the effect or the level left.
In a further assay the test system is Veronica hederifolia. The assay is described as follows: Herbicidal activity against Veronica hederaefolia assessed as killing measured after 21 days after treatment by post-emergence herbicidal activity assay. It counts as functional.
Another assay concerns Stellaria media. The assay is described as follows: Herbicidal activity against Stellaria media assessed as killing measured after 21 days after treatment by post-emergence herbicidal activity assay. It counts as functional.
In a further assay the test system is Viola arvensis. The assay is described as follows: Herbicidal activity against Viola arvensis assessed as killing measured after 21 days after treatment by post-emergence herbicidal activity assay. The format is functional.
Assay [8] concerns the target T1, Protoporphyrinogen oxidase 2 (Spinacia oleracea). The assay is described as follows: Inhibition of Stellaria media protoporphyinogen oxidase assessed as herbicidal activity at 50 g/ha measured after 9 days after treatment under greenhouse by time-course analysis. The arrangement: scale not given: the % may be the effect or the level left.
Assay [9] concerns Tripleurospermum inodorum. The assay is described as follows: Herbicidal activity against Tripleurospermum maritimum subsp. inodorum assessed as killing measured after 21 days after treatment by post-emergence herbicidal activity assay. It counts as functional.
In another assay the test system is Galium aparine. The assay is described as follows: Herbicidal activity against Galium aparine assessed as killing measured after 21 days after treatment by post-emergence herbicidal activity assay. It counts as functional.
In assay [10] the target is T1, Protoporphyrinogen oxidase 2 (Spinacia oleracea). The assay is described as follows: Inhibition of Stellaria media protoporphyinogen oxidase assessed as herbicidal activity at 100 g/ha measured after 1 days after treatment under greenhouse by time-course analysis.
For assay [11] the target is unchanged. The assay is described as follows: Inhibition of Stellaria media protoporphyinogen oxidase assessed as herbicidal activity at 0.3 g/ha measured after 14 days after treatment under greenhouse by time-course analysis. Set-up: scale not given: the % may be the effect or the level left.

For `CCOC(=O)C(Cl)Cc1cc(-n2nc(C)n(C(F)F)c2=O)c(F)cc1Cl` (stereo not given), the ED90 is 10 gAi/ha in [1]; 1.5 gAi/ha in [2]; 1.5 gAi/ha in assay [4]; 5 gAi/ha in assay [5]; 1 gAi/ha in [6]. The Activity in assay [3] was greater than 90%.
Consider `COC(=O)c1cc(Oc2ccc(Cl)cc2Cl)ccc1[N+](=O)[O-]`, for which the ED90 came out at 100 gAi/ha in assay [1]; 15 gAi/ha in assay [2]; 50 gAi/ha in assay [4]; 20 gAi/ha in assay [5]; 30 gAi/ha in assay [6]. Besides, in assay [7], the Activity is less than 90%.
Regarding `N#Cc1cc(I)c(O)c(I)c1` [IOXYNIL], the ED90 came out at 50 gAi/ha with Veronica hederifolia; 50 gAi/ha in the assay on Stellaria media; 50 gAi/ha in the assay with Viola arvensis; 30 gAi/ha in [9]; 100 gAi/ha in the assay with Galium aparine. In addition, the Activity in assay [8] came out at 90%.
As to `Cc1cc(Cl)ccc1O[C@@H](C)C(=O)O` [MECOPROP-P], the ED90 in the assay with Veronica hederifolia was found to be 300 gAi/ha; with Stellaria media it was 100 gAi/ha; in the assay with Viola arvensis, 1000 gAi/ha; in [9], 1000 gAi/ha; in the assay on Galium aparine, 300 gAi/ha. Moreover, in assay [10], the outcome was Active.
For the molecule `COC(=O)c1ccccc1S(=O)(=O)NC(=O)Nc1nc(C)nc(OC)n1` [METSULFURON-METHYL], in assay [11], the Activity turned out to be 90%. Also, the ED90 in the assay on Veronica hederifolia is 50 gAi/ha; in the assay with Stellaria media, 0.3 gAi/ha; with Viola arvensis, 5 gAi/ha; in [9], 0.3 gAi/ha; in the assay on Galium aparine it was greater than 100 gAi/ha.
